Laboratory results reported in patent US9675681B2, “Shortened purification process for the production of capsular Streptococcus pneumoniae polysaccharides” (priority 2007, dated 2017).

What was measured:
R6X = test: Microtiter plate lysis assay, strain R6X (wild type lytA); type: cell-based, S. pneumoniae; settings: compound 0.1%, 15 min at 36° C.
Text: (§1) Mitrotiter Assay: A rapid microtiter plate assay was devised for examining lytA-dependent lysis of pneumococci by different detergents or surfactants. Two pairs of isogenic strains of S. pneumoniae were used in the assay; one member of each pair was wild type for the lytA gene while the other strain carried a deletion in the lytA gene Thus, if lysis were dependent on an active lytA function, that detergent would not lyse the mutant strains. The four strains, R6X, R6X ΔlytA, D39 and D39 ΔlytA, were cultivated in HySoy medium to approximately mid-log phase (OD600˜0.2-0.8; OD600=Optical Density at 600 nm). Cells were then centrifuged and cell pellets were resuspended in HySoy medium. To each well of the microtiter plate, 100 μL, of cell suspension was added, along with 10 μL, of detergent stocks or water as a control. After about 15 minutes at 36° C., the OD600 of the samples was measured with a Spectramax® spectrophotometer (Molecular Devices, Sunnyvale, Calif.).
(§2) Isogenic pairs of strains containing the lytA mutation were grown in a Hy-Soy based medium. The cells were harvested and dispensed into wells in a microttiter plate. The test compound was added and the culture was incubated. After 15 min at 36° C., the optical density (OD600) of each well was determined using a SpectraMax® plate reader (Molecular Devices, Sunnyvale, CALIF.)(see Tables 17 and 18, which summarize results from two separate tests for exemplary compounds).

R6X ΔlytA = test: Microtiter plate lysis assay, strain R6X ΔlytA; type: cell-based, S. pneumoniae; settings: compound 0.1%, 15 min at 36° C.
Text: as §1, §2

D39 = test: Microtiter plate lysis assay, strain D39 (wild type lytA); type: cell-based, S. pneumoniae; settings: compound 0.1%, 15 min at 36° C.
Description: as §1, with “Two pairs of isogenic strains of S. pneumoniae were used in the assay; one member of each pair was wild type for the lytA gene while the other strain carried a deletion in the lytA gene Thus, if lysis were dependent on an active lytA function, that detergent would not lyse the mutant strains.” left out
(§3) Isogenic pairs of strains containing the lytA mutation were grown in a Hy-Soy based medium. The cells were harvested and dispensed into wells in a microttiter plate. The test compound was added and the culture was incubated.

D39 ΔlytA = test: Microtiter plate lysis assay, strain D39 ΔlytA; type: cell-based, S. pneumoniae; settings: compound 0.1%, 15 min at 36° C.
Text: as §1, §2

[1] = system: Wild-type cells (R6X, D39); test: Microtiter plate lysis assay, wild-type cells; type: cell-based, S. pneumoniae; settings: freshly prepared or frozen and thawed cells; about 15 minutes at 36° C.
Text: as §1

[2] = system: ΔlytA cells (R6X ΔlytA, D39 ΔlytA); test: Microtiter plate lysis assay, ΔlytA cells; type: cell-based, S. pneumoniae; settings: freshly prepared or frozen and thawed cells; about 15 minutes at 36° C.
Text: as §1

[3] = system: Streptococcus pneumoniae cells; test: Screening for non-animal derived lytic agents (serotypes 1 and 6B PS release by SEC-HPLC; lytA mutants); type: cell-based; settings: screening studies with serotypes 1 and 6B and lytA mutants
Description: Cell Lysis: Compounds to be tested were added to fermentation broth at a final concentration of 0.1 to 0.01% (v/v) and the solution was allowed to incubate at 37° C. for one hour. The solution was then stored at 2-8° C. overnight. The following morning the solution was centrifuged to remove all cell debris. The cell-free broth was analyzed by SEC-HPLC to determine the concentration of released polysaccharide. The lysis could be performed at any temperature between 2-37° C., preferably at a pH range of 6.0-7.5. The concentration of the detergent was typically between 0.05-0.2% depending on the particular detergent.
S. pneumoniae serotypes 1 and 6B were separately grown in Hy-Soy based media. The cultures were separately harvested and separately dispensed into tubes. […] After overnight incubation, the tubes were centrifuged and the PS content of the lysates for each serotype were determined by SEC-HPLC and compared to DOC.
as §3

Compound | Change in OD600, R6X (R6X; Test 1) [%] | Change in OD600, R6X (R6X; Test 2) [%] | Change in OD600, R6X ΔlytA (R6X ΔlytA; Test 1) [%] | Change in OD600, R6X ΔlytA (R6X ΔlytA; Test 2) [%] | Change in OD600, D39 (D39; Test 1) [%] | Change in OD600, D39 (D39; Test 2) [%] | Change in OD600, D39 ΔlytA (D39 ΔlytA; Test 1) [%] | Change in OD600, D39 ΔlytA (D39 ΔlytA; Test 2) [%] | Lysis of wild-type cells (OD600 versus medium blank) [1] | Lysis of ΔlytA cells [2] | Lytic activity compared to DOC (outcome of the screening studies) [3]
C[C@H](CCC(=O)O)[C@H]1CC[C@H]2[C@@H]3CC[C@@H]4C[C@H](O)CC[C@]4(C)[C@H]3C[C@H](O)[C@]12C [Deoxycholic acid] | 100 | 103 | 34 | 20 | 99 | 101 | 47 | 41 |  |  | 
CCCCCCC(=O)O [Heptanoic acid] | 25 |  | −57 |  | 7 |  | −30 |  |  |  | 
C[C@H](CCC(=O)O)[C@H]1CC[C@H]2[C@@H]3CC[C@@H]4C[C@H](O)CC[C@]4(C)[C@H]3CC[C@]12C [Lithocholic acid] | 20 |  | 16 |  | 8 |  | −2 |  |  |  | 
CCCCCCCCCCCCN(C)CC(=O)O [N-lauryl sarcosine] | 100 | 102 | −34 | −40 | 89 | 101 | −44 | 14 | lysis had occurred | did not lyse | non-animal derived lytic agent alternatives to DOC
CCCCCCCCS(=O)(=O)O [Octanesulfonic acid] | 43 | 13 | 6 | 3 | 34 | 18 | 16 | −3 |  |  | 
CCCCCCCCCCCCOS(=O)(=O)[O-].[Na+] [SDS, sodium dodecyl sulfate] | 99 | 102 | 28 | −13 | 95 | 100 | 36 | 16 | lysis had occurred | did not lyse | non-animal derived lytic agent alternatives to DOC
CCCCCCCC/C=C\CCCCCCCC(=O)OCCOCC(OCCO)C1OCC(OCCO)C1OCCO (centres unmarked) [Tween 80] | 36 |  | 14 |  | 20 |  | 19 |  |  |  | 
C[C@H](CCC(=O)O)[C@H]1CC[C@H]2[C@@H]3[C@H](O)C[C@@H]4C[C@H](O)CC[C@]4(C)[C@H]3CC[C@]12C [chenodeoxycholate] |  |  |  |  |  |  |  |  |  |  | non-animal derived lytic agent alternatives to DOC
C[C@H](CCC(=O)O)[C@H]1CC[C@H]2[C@@H]3[C@H](O)C[C@@H]4C[C@H](O)CC[C@]4(C)[C@H]3C[C@H](O)[C@]12C [cholate] |  |  |  |  |  |  |  |  |  |  | non-animal derived lytic agent alternatives to DOC
CCCCCCCCCCS(=O)(=O)O [decanesulfonic acid] |  |  |  |  |  |  |  |  |  |  | non-animal derived lytic agent alternatives to DOC
C[C@H](CCC(=O)NCC(=O)O)[C@H]1CC[C@H]2[C@@H]3CC[C@@H]4C[C@H](O)CC[C@]4(C)[C@H]3C[C@H](O)[C@]12C [glycodeoxycholate] |  |  |  |  |  |  |  |  |  |  | non-animal derived lytic agent alternatives to DOC
C[C@H](CCC(=O)O)[C@H]1CC[C@H]2[C@@H]3C[C@H](O)[C@@H]4C[C@H](O)CC[C@]4(C)[C@H]3CC[C@]12C [hyodeoxycholate] |  |  |  |  |  |  |  |  |  |  | non-animal derived lytic agent alternatives to DOC
CCCCCCCCCCCCN(CCC(=O)O)CCC(=O)O [lauryl iminodipropionate] |  |  |  |  |  |  |  |  |  |  | non-animal derived lytic agent alternatives to DOC
C[C@H](CCC(=O)NCCS(=O)(=O)O)[C@H]1CC[C@H]2[C@@H]3[C@H](O)C[C@@H]4C[C@H](O)CC[C@]4(C)[C@H]3CC[C@]12C [taurochenodeoxycholate] |  |  |  |  |  |  |  |  |  |  | non-animal derived lytic agent alternatives to DOC
C[C@H](CCC(=O)NCCS(=O)(=O)O)[C@H]1CC[C@H]2[C@@H]3CC[C@@H]4C[C@H](O)CC[C@]4(C)[C@H]3C[C@H](O)[C@]12C [taurodeoxycholate] |  |  |  |  |  |  |  |  |  |  | non-animal derived lytic agent alternatives to DOC
Tauroglycocholic acid | 51 |  | −16 |  | 47 |  | −20 |  |  |  | 
Triton ® X-100 | 91 | 101 | 22 | −19 | 97 | 100 | 30 | 4 | lysis had occurred | did not lyse | non-animal derived lytic agent alternatives to DOC
tert-Octylphenoxy poly(oxyethylene)ethanol [Igepal® CA-630] |  |  |  |  |  |  |  |  |  |  | non-animal derived lytic agent alternatives to DOC
